Test results taken from US11360080B2, “AhR-ROR-γt complex as a biomarker and therapeutic target for autoimmune disease and IL-17A-associated disease” (NATIONAL HEALTH RESEARCH INSTITUTES, priority 2018, dated 2022).

Columns and labels:
AhR-RORγt complex = target: T1, AhR-RORγt complex (UniProt P35869+P51450); assay: FRET assay of HEK293T cells co-transfected with CFP-AhR, YFP-RORγt and IKKβ plasmids; format: cell-based; conditions: IKKβ
T1 construct: expressed in transfected cells; host or cells: HEK293T
T1 sequence (P35869 11-848): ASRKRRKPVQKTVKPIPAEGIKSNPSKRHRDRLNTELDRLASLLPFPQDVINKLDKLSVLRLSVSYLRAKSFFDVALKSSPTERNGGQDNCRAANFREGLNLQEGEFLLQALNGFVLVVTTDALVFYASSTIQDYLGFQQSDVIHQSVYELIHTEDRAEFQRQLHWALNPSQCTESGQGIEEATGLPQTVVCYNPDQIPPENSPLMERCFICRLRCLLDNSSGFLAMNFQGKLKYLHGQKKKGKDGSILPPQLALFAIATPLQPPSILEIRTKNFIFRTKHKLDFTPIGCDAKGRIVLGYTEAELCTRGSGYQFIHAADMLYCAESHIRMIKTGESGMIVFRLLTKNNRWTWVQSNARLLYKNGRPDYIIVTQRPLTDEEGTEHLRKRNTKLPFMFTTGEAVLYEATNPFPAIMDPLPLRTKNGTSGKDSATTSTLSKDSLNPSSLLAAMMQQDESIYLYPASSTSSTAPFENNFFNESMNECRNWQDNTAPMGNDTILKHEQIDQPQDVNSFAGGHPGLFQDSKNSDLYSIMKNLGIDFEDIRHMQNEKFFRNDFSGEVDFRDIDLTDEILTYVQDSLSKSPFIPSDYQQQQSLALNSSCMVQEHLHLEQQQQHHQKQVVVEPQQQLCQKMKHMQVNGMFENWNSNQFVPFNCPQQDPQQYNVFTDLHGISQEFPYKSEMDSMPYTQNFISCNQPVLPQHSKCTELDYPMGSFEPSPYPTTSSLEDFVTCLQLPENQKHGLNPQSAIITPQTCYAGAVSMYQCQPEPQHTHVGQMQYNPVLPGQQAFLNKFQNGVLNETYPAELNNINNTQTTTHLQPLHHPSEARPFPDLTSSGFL
T1 sequence (P51450 1-495 isoform P51450-2 T331K): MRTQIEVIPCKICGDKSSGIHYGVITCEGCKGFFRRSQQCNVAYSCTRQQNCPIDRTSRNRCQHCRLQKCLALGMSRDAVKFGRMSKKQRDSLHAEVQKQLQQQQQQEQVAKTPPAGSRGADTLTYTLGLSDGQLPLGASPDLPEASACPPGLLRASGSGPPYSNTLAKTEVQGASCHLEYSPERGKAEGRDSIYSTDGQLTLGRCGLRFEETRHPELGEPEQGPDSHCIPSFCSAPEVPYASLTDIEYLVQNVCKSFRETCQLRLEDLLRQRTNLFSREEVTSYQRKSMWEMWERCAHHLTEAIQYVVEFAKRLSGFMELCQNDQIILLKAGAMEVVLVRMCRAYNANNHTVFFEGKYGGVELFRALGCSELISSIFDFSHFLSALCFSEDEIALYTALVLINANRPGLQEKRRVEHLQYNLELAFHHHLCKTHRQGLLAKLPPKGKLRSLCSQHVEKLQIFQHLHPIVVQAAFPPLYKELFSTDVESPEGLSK
Description: (A) Luciferase activity of NF-κB-driven reporter assays in stable GLK-transfected CHO-K1 cells that were treated with or without the GLK inhibitor C1 (verteporfin) under the indicated concentration. The fold changes are presented relative to the value of vector control. (B) Recombinant proteins of GLK kinase domain plus recombinant proteins of GST-tagged kinase-dead PKCθ (K409W) were subjected to in vitro kinase assays in the presence or absence of the GLK inhibitor C1 (verteporfin). Means±SD of are shown. *, P value<0.05; **, P value<0.01 (two-tailed Student's t-test). (C) The AhR-RORγt complex was inhibited by the GLK inhibitor. […] (D) Quantification of the PLA signals of (C). […]
FRET signal in live cells was detected by EnVision 2104 Multilabel Plate Reader (Perkin Elmer). The reaction was excited by light passing through a 430-nm filter (with 8 nm bandwidth), and the intensity of emitted fluorescence passing through a 530-nm filter (with 8 nm bandwidth) was recorded. If the protein-protein pair is in close proximity (1-10 nm), a 530-nm signal will be detected. The FRET efficiency was calculated using the following equation: FRET efficiency=((FRET−CFP×a−YFP×b)/YFP)×100%, where FRET, CFP, and YFP correspond to the fluorescent intensities acquired through FRET, CFP, and YFP filter sets, respectively; a and b are the donor emission and acceptor excitation crosstalk ratios, respectively. […]

murine primary T cells = assay: ELISA of cytokines in supernatants of murine primary T cells stimulated with anti-CD3/CD28; format: cell-based, mouse; conditions: 5 μM or 10 μM for 3 days
Description: Means±SD are shown, (b) ELISA of IL-17A in supernatants of human T cells. T cells were stimulated with anti-CD3/CD28 and treated with C1 (verteporfin) (1 μM or 5 μM) or C2 (1 μM or 5 μM) for 3 days. HC, healthy control; SLE, systemic lupus erythematosus; RA, rheumatoid arthritis; AS, ankylosing spondylitis; PsA, psoriatic arthritis; PSS, primary Sjögren's syndrome. Means±SD are shown. C1 denotes verteporfin; C2 denotes alexidine dihydrochloride.
We further studied whether IL-17A production is abolished by the inhibitors of GLK-induced AhR-RORγt complex in human and murine T cells. We first tested the inhibitor experiment using murine T cells stimulated with TCR signaling (anti-CD3 plus anti-CD28 antibodies). […] Next, we studied the blocking effect of IL-17 production by the treatment of C1 (verteporfin) or C2 (alexidine dihydrochloride) using human peripheral blood T cells. […] Taken together, GLK inhibitors (verteporfin and alexidine dihydrochloride) inhibit GLK-induced AhR-RORγt complex and IL-17A production in human autoimmune patient T cells, as well as the disease severity of autoimmune animal models. Thus, GLK, GLK signaling, or GLK-induced AhR-RORγt complex can be a promising therapeutic target for autoimmune diseases.

[1] = tested on: splenic T cells (Th17 differentiation); assay: In vitro Th17 differentiation, flow cytometry of IL-17A-producing CD4+ T cells; format: cell-based, mouse; conditions: 1 or 5 μM during differentiation
Description: (§1) (A) Flow cytometry of IL-17A-producing CD4^+ T cells. Splenic T cells were co-treated with verteporfin (C1) (1 or 5 μM) during Th17 differentiation in vitro. (B) Flow cytometry of IL-17A-producing CD4^+ T cells. Murine in vitro differentiated Th17 cells were stimulated with PMA plus ionomycin and co-treated with verteporfin (C1) (1 or 5 μM) for 30 min. (C) Flow cytometry of Foxp3-producing […] T cells. Splenic T cells were co-treated with verteporfin (C1) (5 μM) during Treg differentiation in vitro. (D) Flow cytometry of Foxp3-producing CD4^+ T cells, which were differentiated from CD4^+ T cells of wild-type or Lck-GLK transgenic mice.
CD4^+ splenic T cells were purified from mice. Cells (5×10^5) were cultured in 1 ml RPMI medium in 48-well plates coated with anti-CD3 (2 μg/ml) and anti-CD28 (3 μg/ml) antibodies. For Th17 differentiation, splenic CD4^+ cells were cultured in the medium containing IL-23 recombinant proteins (50 ng/ml, R&D), IL-6 recombinant proteins (20 ng/ml, R&D), TGF-β recombinant proteins (5 ng/ml, R&D), anti-IL-4 (5 μg/ml, Biolegend), and anti-IFN-γ (5 μg/ml, Biolegend) antibodies. For Th1 differentiation, CD4^+ splenic cells were cultured in the medium containing IL-12 recombinant proteins (5 ng/ml, R&D) and anti-IL-4 antibodies (1 μg/ml, Biolegend).

[2] = tested on: splenic T cells (Treg differentiation); assay: In vitro Treg differentiation, flow cytometry of Foxp3-producing CD4+ T cells; format: cell-based, mouse; conditions: 5 μM
Description: as §1

C=Cc1c(C)c2cc3nc(cc4[nH]c(cc5nc(cc1[nH]2)C(C)=C5CCC(=O)O)c(CCC(=O)OC)c4C)[C@@]1(C)C3=CC=C(C(=O)OC)[C@H]1C(=O)OC [C1, verteporfin]
FRET signals AhR-RORγt (AhR-RORγt complex): inhibited
TCR-induced IFN-γ level (murine primary T cells): partially reduced
TCR-induced IL-17A production (murine primary T cells): drastically abolished
TCR-induced IL-17B level (murine primary T cells): not decreased
TCR-induced IL-17E level (murine primary T cells): not decreased
TCR-induced IL-17F level (murine primary T cells): not decreased
TCR-induced TNF-α level (murine primary T cells): partially reduced
Th17 differentiation [1]: inhibited
in vitro Treg (Foxp3-expressing CD4+ T cell) differentiation [2]: enhanced
